Data: ChEMBL document CHEMBL1150731, “Constituents of Tritonia crocosmaeflora, II. Tricrozarin B, an antitumor naphthazarin derivative” (J Nat Prod, 1987)
Converted amounts (≈) assume the structure as drawn.

Columns and labels:
[1] = Cytotoxicity against human HeLaS3 cells; assay type: functional, cell-based; conditions: HeLa S3
[2] = tested on: CCRF S-180; assay: Antitumor activity against mouse S180 cells xenografted ICR mouse at 50 mg/kg, ip relative to control; assay type: functional; conditions: route intraperitoneal

## COC1=C(OC)C(=O)c2c(O)c(OC)cc(O)c2C1=O [TRICROZARIN B]
[1]
  IC50: 7 ng/mL (≈ 0.025 µM)
[2]
  T/C: 146%
